Source: patent publication US20040248211A1, “ICAM-related protein” (priority 1992, published 2004)

How the values were obtained:
[1] = tested on: HL60 cells; experiment: IL-8 release from HL60; assay type: cell-based, human
Protocol: Monocytes were isolated by elutriation from peripheral blood of normal donors. […] After blocking free sites, the cells were placed into the wells in medium. […] Those cells plated in wells treated with BSA plus or minus LPS were rounded and not spread. After 8 or 18 hours of incubation at 37° C., the medium was removed and assayed for IL-8 immunoreactivity. […] By 18 hours, IL-8 levels in media from ICR monoclonal antibody wells were much elevated over control levels. […] Similar experiments with monocytic cell lines (U937 and HL60) to determine if ICR monoclonal antibody can induce IL-8 release were conducted. U937 cells responded to each of the ICR monoclonal antibody treated wells by releasing IL-8 into the conditioned medium. […] No detectable morphological changes were detected with the U937 or HL60 cells.

[2] = tested on: SKW3 cell binding to ICAM-R; experiment: Peptide inhibition of SKW3 cell adhesion to soluble ICAM-R coated plastic; assay type: cell-based, human; conditions: peptide at 1-2 mg/ml; PMA; soluble ICAM-R coated wells
Text: Based on amino acid sequence alignment with known β1 integrin binding domains in fibronectin and based on epitope mapping of anti-ICAM-R monoclonal antibodies that block cell adhesion (see Table 11 in Example 22), ICAM-R peptides corresponding to potential integrin binding sites were synthesized by Macromolecular Resources (Colorado State University, Fort Collins, Colo.). Four ICAM-R sequences which lie between or at the border of predicted beta strands in domains 1 and 3 of were chosen. Similar but not identical β-strand predictions for ICAM-1 are set out in Staunton et al., Cell, 61: 243-254 (1990). Inhibition was assayed using a system involving cell adhesion to soluble ICAM-R coated plastic. Calcein-labeled cells (see Example 7 Section A above) were incubated with peptide at 1-2 mg/ml for 20 minutes at 25° C. and the cells were transferred to wells of a 96-well plate previously coated with soluble ICAM-R (see Example 10) and containing 10 μg/ml final concentration phorbol 12-myristate 13-acetate (PMA). After 50 minutes, the plate was inverted in PBS for 10 minutes to remove unbound cells. Bound cells were quantitated using a fluorescence concentration analyzer.

[3] = tested on: THP-1 cells; experiment: MIP-1 alpha secretion by THP-1 on immobilized soluble LFA-1; assay type: cell-based, human; conditions: background approximately 100 pg/ml
Protocol: A soluble version of LFA-1, when immobilized onto plastic wells, induced THP-1 cells to secrete approximately […] MIP-1 alpha, whereas background levels were approximately 100 pg/ml.

[4] = tested on: Jurkat T leukemic cells; experiment: F-actin and G-actin cell content; assay type: cell-based, human; conditions: ICR-1.1 without gam
Protocol: Cellular shape changes (such as cell spreading) as well as T-cell activation are associated with changes in the cytoskeletal actin network manifested by alteration of the ratio of globular actin (G-actin) to filamentous actin (F-actin). To test whether the engagement by ICAM-R antibodies of ICAM-R expressed on Jurkat T leukemic cells would induce changes in cellular actin ratios, studies measuring F-actin and G-actin cell content were carried out by methods known in the art.

[5] = tested on: human PBL; experiment: Tyrosine phosphorylation in PBL after crosslinking; assay type: cell-based; conditions: soluble antibody 30 ug/ml, goat anti-mouse IgG 100 ug/ml
Protocol: Human PBL was obtained by Ficoll-Hypaque centrifugation and were incubated for 5 minutes with soluble ICR-4.2, OKT3 or anti-HLA-(1×10^7 cells were incubated with each antibody at 30 ug/ml). The cells were then washed and goat anti-mouse IgG (Cappell) was added to a final concentration of 100 ug/ml. After varying periods of time, the cells were lysed in detergent and lysates were electrophoresed on a 10% acrylamide gel, transferred to blotting paper. Blots were then probed with the anti-phosphotryosine antibody 4G10.

[6] = tested on: Jurkat T cells; experiment: MIP-1 alpha ELISA, Jurkat on co-immobilized antibodies; assay type: cell-based, human; conditions: anti-ICAM-R 10 μg/ml co-immobilized with sub-optimal OKT3; OKT3 = sub-optimal concentration alone
Protocol: In addition to induction in monocytes, the expression of MIP-1 alpha in the Jurkat T leukemic cell line upon treatment with ICR-5.1, ICR-4.2 or ICR-9.2 was also examined. A sub-optimal dose of anti-CD3 antibody OKT3 (500 ng/ml) in PBS-CMF was plated onto flat-bottomed 96-well polystyrene plates and incubated overnight at 4° C. Then, after removing well contents, monoclonal antibody OKT3, ICR-5.1, ICR-4.2, or ICR-9.2 (10 μg/ml in PBS-CMF) was plated overnight at 4° C. Wells were blocked with 1% BSA in PBS-CMF at 37° C. for 1 hour and then rinsed in PBS-CMF. Jurkat T cells were seeded into wells at 2×10^5/well in RPMI/10%FCS+10 μg/ml polymyxin B—SO4. Cells were incubated in wells for 4, 6, or 8 hours or overnight at 37° C. in 5% CO2. Supernatants were harvested by transferring well contents to round-bottomed 96-well polystyrene plates, harvested by centrifuging for 5 minutes at 1200 rpm and by re-transferring to new round-bottomed plates. MIP-1 alpha release into the cell supernatant was assayed by a specific ELISA for MIP-1 alpha.

In the case of lipopolysaccharide [LPS], the IL-8 release [1] is reported as “did induce a marked release”.

With “ICAM-1 70-74: ICAM-1 domain 1 peptide (DGQST, SEQ ID NO: 25)” the “% Inhibition CD18-Dependent Binding (SKW3)” value [2] was “did not inhibit binding”.

For “soluble version of LFA-1: soluble version of LFA-1 immobilized onto plastic wells”, the MIP-1 alpha secreted [3] was “approximately 1000 μg/ml”.

“OKT3: anti-CD3 antibody [reference compound]” was tested, and the “time to peak F-actin content” value ([4]; OKT3 plus gam) was ≤ 10 min, the F-actin content ([4]; OKT3 plus goat anti-mouse crosslinker (gam)) was “rapid, transient increase in F-actin content” and the “tyrosine phosphorylation after crosslinking” value [5] was “Phosphorylation of substrates were also observed”. For the same substance, the “MIP-1 alpha expression relative to BSA background” value [6] was “three-fold”.
